These are literature values, as cited in patent US20020136782A1, “Composition patent for solid-dosage form of weight loss product” (priority 2001, published 2002).

For the series the following is noted: non-toxic dose; equivalent doses.

With Chromium picolinate, the chromosome damage entry is listed as “significant chromosome damage”.

For chromium polynicotinate, the chromosome damage entry is on record as “did not cause chromosome damage”.
